Experimental data reported in PubChem BioAssay (NCI).
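These data come from cells grown in 96-well plates and exposed to compound for 48 hours at five concentrations. TGI is the concentration that stops growth completely.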

Columns and labels:
Test in all cases: growth of human tumour cells (NCI), 48 h
SNB-75 CNS = test system: SNB-75 CNS
SK-MEL-28 melanoma = test system: SK-MEL-28 melanoma
SF-539 CNS = test system: SF-539 CNS
M14 melanoma = test system: M14 melanoma
MDA-MB-435 = test system: MDA-MB-435
UO-31 renal = test system: UO-31 renal
HCT-15 colon = test system: HCT-15 colon
SF-268 CNS = test system: SF-268 CNS
SNB-19 CNS = test system: SNB-19 CNS
UACC-62 melanoma = test system: UACC-62 melanoma
HOP-62 NSCLC = test system: HOP-62 NSCLC
DU-145 prostate = test system: DU-145 prostate
T-47D breast = test system: T-47D breast
SK-OV-3 ovarian = test system: SK-OV-3 ovarian
UACC-257 melanoma = test system: UACC-257 melanoma
NCI/ADR-RES ovarian = test system: NCI/ADR-RES ovarian
NCI-H23 lung = test system: NCI-H23 lung
HL-60(TB) leukemia = test system: HL-60(TB) leukemia
RPMI-8226 leukemia = test system: RPMI-8226 leukemia
786-0 renal = test system: 786-0 renal
ACHN renal = test system: ACHN renal
A498 renal = test system: A498 renal
LOX IMVI melanoma = test system: LOX IMVI melanoma
SF-295 CNS = test system: SF-295 CNS
SK-MEL-2 melanoma = test system: SK-MEL-2 melanoma
EKVX NSCLC = test system: EKVX NSCLC
IGROV1 ovarian = test system: IGROV1 ovarian
HS 578T breast = test system: HS 578T breast
A549 NSCLC = test system: A549 NSCLC
OVCAR-8 ovarian = test system: OVCAR-8 ovarian
HCT-116 colon = test system: HCT-116 colon
SR leukemia = test system: SR leukemia
NCI-H460 lung = test system: NCI-H460 lung
HT29 colon = test system: HT29 colon
MALME-3M melanoma = test system: MALME-3M melanoma
MOLT-4 leukemia = test system: MOLT-4 leukemia
HCC-2998 colon = test system: HCC-2998 colon
NCI-H226 lung = test system: NCI-H226 lung
SN12C renal = test system: SN12C renal
COLO 205 colon = test system: COLO 205 colon
OVCAR-5 ovarian = test system: OVCAR-5 ovarian
U251 CNS = test system: U251 CNS
CCRF-CEM leukemia = test system: CCRF-CEM leukemia
MDA-MB-231 breast = test system: MDA-MB-231 breast
TK-10 renal = test system: TK-10 renal
MCF7 breast = test system: MCF7 breast
RXF 393 renal = test system: RXF 393 renal
K-562 leukemia = test system: K-562 leukemia
NCI-H522 lung = test system: NCI-H522 lung
MDA-N = test system: MDA-N
BT-549 breast = test system: BT-549 breast
KM12 colon = test system: KM12 colon
HOP-92 NSCLC = test system: HOP-92 NSCLC
SK-MEL-5 melanoma = test system: SK-MEL-5 melanoma
SW-620 colon = test system: SW-620 colon
OVCAR-3 ovarian = test system: OVCAR-3 ovarian
OVCAR-4 ovarian = test system: OVCAR-4 ovarian
CAKI-1 renal = test system: CAKI-1 renal
PC-3 prostate = test system: PC-3 prostate

C/C(=N\NC(=S)N1CCN(c2ccccn2)CC1)c1cccc(C)n1
TGI (SNB-75 CNS): 12.5 µM
TGI (SK-MEL-28 melanoma): 25.3 µM
TGI (SF-539 CNS): 6.12 µM
TGI (M14 melanoma): 9.23 µM
TGI (MDA-MB-435): 17.4 µM
TGI (UO-31 renal): 30.6 µM
TGI (HCT-15 colon): 16 µM
TGI (SF-268 CNS): 19.9 µM
TGI (SNB-19 CNS): 19.9 µM
TGI (UACC-62 melanoma): 7.16 µM
TGI (HOP-62 NSCLC): 20.1 µM
TGI (DU-145 prostate): 14.6 µM
TGI (T-47D breast): 35 µM
TGI (SK-OV-3 ovarian): 21.4 µM
TGI (UACC-257 melanoma): 16.8 µM
TGI (NCI/ADR-RES ovarian): 27.5 µM
TGI (NCI-H23 lung): 21.8 µM
TGI (HL-60(TB) leukemia): 17.6 µM
TGI (RPMI-8226 leukemia): 12.6 µM
TGI (786-0 renal): 3.31 µM
TGI (ACHN renal): 12.7 µM
TGI (A498 renal): 6.33 µM
TGI (LOX IMVI melanoma): 17.8 µM
TGI (SF-295 CNS): 12.3 µM
TGI (SK-MEL-2 melanoma): 6.78 µM
TGI (EKVX NSCLC): 10.5 µM
TGI (IGROV1 ovarian): 4.01 µM
TGI (HS 578T breast): 43.5 µM
TGI (A549 NSCLC): 18.5 µM
TGI (OVCAR-8 ovarian): 14.1 µM
TGI (HCT-116 colon): 10.5 µM
TGI (SR leukemia): > 100 µM
TGI (NCI-H460 lung): 11.9 µM
TGI (HT29 colon): 14.5 µM
TGI (MALME-3M melanoma): 19.3 µM
TGI (MOLT-4 leukemia): 53.2 µM
TGI (HCC-2998 colon): 24.8 µM
TGI (NCI-H226 lung): 9.38 µM
TGI (SN12C renal): 21.9 µM
TGI (COLO 205 colon): 11.3 µM
TGI (OVCAR-5 ovarian): 13.3 µM
TGI (U251 CNS): 17.5 µM
TGI (CCRF-CEM leukemia): > 100 µM
TGI (MDA-MB-231 breast): 13.1 µM
TGI (TK-10 renal): 21.5 µM
TGI (MCF7 breast): 12.4 µM
TGI (RXF 393 renal): 4.98 µM
TGI (K-562 leukemia): > 38.2 µM
TGI (NCI-H522 lung): 0.59 µM
TGI (MDA-N): 17.8 µM
TGI (BT-549 breast): 18 µM
TGI (KM12 colon): 18 µM
TGI (HOP-92 NSCLC): 14.3 µM
TGI (SK-MEL-5 melanoma): 7.06 µM
TGI (SW-620 colon): 14.2 µM

COc1nc(=O)n(C2CC(F)C(CO)O2)cc1C (stereo unspecified)
TGI (SK-MEL-28 melanoma): > 100 µM
TGI (SF-539 CNS): > 100 µM
TGI (M14 melanoma): > 100 µM
TGI (MDA-MB-435): > 100 µM
TGI (UO-31 renal): > 100 µM
TGI (HCT-15 colon): > 100 µM
TGI (SF-268 CNS): > 100 µM
TGI (OVCAR-3 ovarian): > 100 µM
TGI (OVCAR-4 ovarian): > 100 µM
TGI (SNB-19 CNS): > 100 µM
TGI (UACC-62 melanoma): > 100 µM
TGI (HOP-62 NSCLC): > 100 µM
TGI (DU-145 prostate): > 100 µM
TGI (T-47D breast): > 100 µM
TGI (UACC-257 melanoma): > 100 µM
TGI (NCI/ADR-RES ovarian): > 100 µM
TGI (NCI-H23 lung): > 100 µM
TGI (HL-60(TB) leukemia): > 100 µM
TGI (RPMI-8226 leukemia): > 100 µM
TGI (786-0 renal): > 100 µM
TGI (ACHN renal): > 100 µM
TGI (LOX IMVI melanoma): > 100 µM
TGI (SF-295 CNS): > 100 µM
TGI (EKVX NSCLC): > 100 µM
TGI (IGROV1 ovarian): > 100 µM
TGI (HS 578T breast): > 100 µM
TGI (A549 NSCLC): > 100 µM
TGI (OVCAR-8 ovarian): > 100 µM
TGI (HCT-116 colon): > 100 µM
TGI (SR leukemia): > 100 µM
TGI (NCI-H460 lung): > 100 µM
TGI (HT29 colon): > 100 µM
TGI (MALME-3M melanoma): > 100 µM
TGI (MOLT-4 leukemia): > 100 µM
TGI (HCC-2998 colon): > 100 µM
TGI (CAKI-1 renal): > 100 µM
TGI (NCI-H226 lung): > 100 µM
TGI (SN12C renal): > 100 µM
TGI (COLO 205 colon): > 100 µM
TGI (U251 CNS): > 100 µM
TGI (CCRF-CEM leukemia): > 100 µM
TGI (MDA-MB-231 breast): > 100 µM
TGI (TK-10 renal): > 100 µM
TGI (MCF7 breast): > 100 µM
TGI (K-562 leukemia): > 100 µM
TGI (NCI-H522 lung): > 100 µM
TGI (MDA-N): > 100 µM
TGI (BT-549 breast): > 100 µM
TGI (KM12 colon): > 100 µM
TGI (SK-MEL-5 melanoma): > 100 µM
TGI (SW-620 colon): > 100 µM

CC(=O)O[C@H]1C(=O)[C@@]2(C)[C@H]([C@H](OC(=O)C3CCCCC3)[C@]3(O)C[C@H](OC(=O)[C@H](O)[C@@H](NC(=O)OC(C)(C)C)c4ccccc4)C(C)=C1C3(C)C)[C@]1(OC(C)=O)CO[C@@H]1C[C@@H]2O
TGI (SNB-75 CNS): > 12.5 µM
TGI (SK-MEL-28 melanoma): > 9.82 µM
TGI (SF-539 CNS): 0.0571 µM
TGI (M14 melanoma): 0.117 µM
TGI (UO-31 renal): > 12.5 µM
TGI (HCT-15 colon): > 12.5 µM
TGI (SF-268 CNS): > 12.5 µM
TGI (OVCAR-3 ovarian): 0.019 µM
TGI (OVCAR-4 ovarian): > 12.5 µM
TGI (SNB-19 CNS): > 12.5 µM
TGI (UACC-62 melanoma): > 2.47 µM
TGI (T-47D breast): > 12.5 µM
TGI (SK-OV-3 ovarian): > 12.5 µM
TGI (UACC-257 melanoma): > 12.5 µM
TGI (NCI/ADR-RES ovarian): > 5.94 µM
TGI (NCI-H23 lung): > 9.76 µM
TGI (HL-60(TB) leukemia): 0.00365 µM
TGI (RPMI-8226 leukemia): 0.432 µM
TGI (786-0 renal): > 7.61 µM
TGI (ACHN renal): > 12.5 µM
TGI (LOX IMVI melanoma): > 11.9 µM
TGI (SF-295 CNS): 0.165 µM
TGI (SK-MEL-2 melanoma): 5.15 µM
TGI (EKVX NSCLC): > 12.5 µM
TGI (IGROV1 ovarian): > 12.5 µM
TGI (HS 578T breast): 0.741 µM
TGI (PC-3 prostate): > 12.5 µM
TGI (A549 NSCLC): > 12.5 µM
TGI (OVCAR-8 ovarian): > 12.5 µM
TGI (HCT-116 colon): > 4.97 µM
TGI (SR leukemia): > 12.5 µM
TGI (NCI-H460 lung): > 5.2 µM
TGI (HT29 colon): > 6.33 µM
TGI (MALME-3M melanoma): 5.07 µM
TGI (MOLT-4 leukemia): 0.337 µM
TGI (HCC-2998 colon): 0.248 µM
TGI (CAKI-1 renal): > 12.5 µM
TGI (NCI-H226 lung): > 12.5 µM
TGI (SN12C renal): > 11.5 µM
TGI (COLO 205 colon): 0.144 µM
TGI (OVCAR-5 ovarian): 0.0701 µM
TGI (U251 CNS): > 12.5 µM
TGI (CCRF-CEM leukemia): > 8.82 µM
TGI (MDA-MB-231 breast): > 6.31 µM
TGI (TK-10 renal): > 10.1 µM
TGI (MCF7 breast): 0.0879 µM
TGI (RXF 393 renal): 2.15 µM
TGI (K-562 leukemia): > 12.5 µM
TGI (NCI-H522 lung): 0.22 µM
TGI (MDA-N): 0.0173 µM
TGI (BT-549 breast): 0.46 µM
TGI (KM12 colon): > 12.5 µM
TGI (HOP-92 NSCLC): 0.575 µM
TGI (SK-MEL-5 melanoma): > 3.99 µM
TGI (SW-620 colon): > 12.5 µM
